Measured values from patent publication US20230270804A1, “ANTI-HYPERCHOLESTEROLEMIA COMPOSITION AND A METHOD OF MANUFACTURING THE SAME” (NBI BIOSCIENCES PRIVATE LIMITED, priority 2020, published 2023).

Legend:
[1] = Therapeutic study (60 days treatment after 90 days HFD): body weight; assay type: in vivo, Wistar strain albino rats; settings: in g
Procedure: (§1) Wistar strain albino rats of body weight ranging from 190-225 g were selected for the present study. The temperature and humidity were kept at optimum (22+2° C.; 40-70% and animals were exposed to natural chronological day night cycles. The experiments were carried out in conformity with the Institutional Animal Ethics Committee.
(§2) The 6 groups were as follows: • 1. Normal Control • 2.

[2] = test system: hypercholesterolemia induced wistar rat's models; assay: Prophylactic study: lipid profile (TC, TG, HDL-C, LDL-C, VLDL); assay type: in vivo, Wistar strain albino rats; settings: for HDL-C / LDL-C / TC / TG / VLDL: HFD+normal diet
Procedure: as §1, §2
(§3) 1.5-2 ml blood sample was taken from retino-orbital chamber in vials for biochemical estimations at every 15 days. Investigations performed included detailed Total Cholesterol—TC (mg/dl), Triglyceride—TG (mg/dl), High Density Lipoprotein—HDL-C (mg/dl), Low Density Lipoprotein—LDL-C (mg/dl), Very Low-Density Lipoprotein—VLDL (mg/dl), WBC (10^3/u1), RBC (10^6/u1), Hb (g/dl), PCV (%), Reticulocyte (%), Platelet count 10^5/mm^3, Clotting time (Sec), Neutrophils, Lymphocyte, Monocyte and Eosinophil. The estimations were done with Ecoline kits from Erba Mannheim, ERBA diagnostics Mannheml, Germany using Semi Autoanalyzer RX50 of MicroLabs Instruments and COUNCELL21 of Tulip Diagnostics Pvt. Ltd. Lipid peroxidation (Plasma & Liver), HMG Co-Reductase, Creatine phosphokinase (CPK), Lactate dehydrogenase (LDH), SGOT and SGPT were estimated at the end of both the studies using the kits.

[3] = Prophylactic study: hematological parameters; assay type: in vivo, Wistar strain albino rats; settings: HFD+normal diet; for Lymphocyte / Neutrophils: in % (unit assumed)
Procedure: as §1, §2, §3

[4] = Prophylactic study: HbA1c / blood glucose level; assay type: in vivo, Wistar strain albino rats; settings: HFD fed groups
[5] = test system: heart, spleen, lungs, kidney, liver, Aorta; assay: Therapeutic study: histopathology (heart, spleen, lungs, kidney, liver, aorta); assay type: in vivo
Source text: FIG. 7 depicts the histopathological images of heart. […] FIG. 8 depicts the histopathological images of spleen. […] FIG. 9 depicts the histopathological images of lungs. […] FIG. 10 depicts the histopathological images of kidney. […] FIG. 11 depicts the histopathological images of liver.
The long-term rise in the electrolyte such as Na and are associated with blood pressure disorders impacting the heart.

CC(C)c1c(C(=O)Nc2ccccc2)c(-c2ccccc2)c(-c2ccc(F)cc2)n1CC[C@@H](O)C[C@@H](O)CC(=O)O [Statin, Atorvastatin]
Average Body Weight ([1]; HFD continued, day 0): 275.33 ± 7.09 | Average Body Weight ([1]; HFD continued, day 15): 270.67 ± 7.37 | Average Body Weight ([1]; HFD continued, day 30): 268.33 ± 2.52 | Average Body Weight ([1]; HFD continued, day 45): 265.67 ± 6.51 | Average Body Weight ([1]; HFD continued, day 60): 262.33 ± 7.15 | Average Body Weight ([1]; HFD discontinued, day 0): 270.33 ± 8.74 | Average Body Weight ([1]; HFD discontinued, day 30): 264.33 ± 3.06 | Average Body Weight ([1]; HFD discontinued, day 45): 263.00 ± 5.57 | Average Body Weight ([1]; HFD discontinued, day 60): 259.83 ± 6.27 | HDL-C ([2]; day 0): 34.60 ± 1.50 mg/dL | LDL-C ([2]; day 0): 47.10 ± 1.25 mg/dL | TC ([2]; day 0): 81.95 ± 1.35 mg/dL | TG ([2]; day 0): 16.75 ± 1.10 mg/dL | VLDL ([2]; day 0): 2.48 ± 0.15 mg/dL | HDL-C ([2]; day 15): 31.56 ± 1.26 mg/dL | LDL-C ([2]; day 15): 48.68 ± 0.29 mg/dL | TC ([2]; day 15): 85.24 ± 1.55 mg/dL | VLDL ([2]; day 15): 2.86 ± 0.35 mg/dL | HDL-C ([2]; day 30): 35.66 ± 2.08 mg/dL | LDL-C ([2]; day 30): 56.60 ± 4.50 mg/dL | TC ([2]; day 30): 85.66 ± 4.04 mg/dL | TG ([2]; day 30): 22.66 ± 3.10 mg/dL | VLDL ([2]; day 30): 2.96 ± 0.02 mg/dL | HDL-C ([2]; day 45): 38.33 ± 5.85 mg/dL | LDL-C ([2]; day 45): 57 ± 4.0 mg/dL | TC ([2]; day 45): 87.5 ± 5.04 mg/dL | TG ([2]; day 45): 24.86 ± 4.20 mg/dL | VLDL ([2]; day 45): 3.03 ± 0.19 mg/dL | HDL-C ([2]; day 60): 39.60 ± 5.57 mg/dL | LDL-C ([2]; day 60): 57.23 ± 4.43 mg/dL | TC ([2]; day 60): 88.5 ± 4.44 mg/dL | TG ([2]; day 60): 24.4 ± 4.61 mg/dL | VLDL ([2]; day 60): 3.0 ± 0.13 mg/dL | HDL-C ([2]; day 75): 33.53 ± 1.92 mg/dL | LDL-C ([2]; day 75): 55.27 ± 4.39 mg/dL | TC ([2]; day 75): 90.95 ± 2.05 mg/dL | TG ([2]; day 75): 22.67 ± 4.16 mg/dL | VLDL ([2]; day 75): 2.98 ± 0.84 mg/dL | HDL-C ([2]; day 90): 34.26 ± 1.26 mg/dL | LDL-C ([2]; day 90): 52.83 ± 1.76 mg/dL | TC ([2]; day 90): 90.22 ± 2.10 mg/dL | TG ([2]; day 90): 21.93 ± 3.90 mg/dL | VLDL ([2]; day 90): 3.12 ± 0.79 mg/dL | increase in TC ([2]; prophylactic study, after HFD diet treatment): 10% | Clotting time ([3]; day 0): 109.0 ± 1.10 s | Eosinophil ([3]; day 0): 1.1% | Hb ([3]; day 0): 11.95 ± 1.10 g/dL | Monocyte ([3]; day 0): 1.4% | PCV ([3]; day 0): 42.50 ± 1.80% | RBC ([3]; day 0): 7.20 ± 0.20 10^6/μl | Reticulocyte ([3]; day 0): 1.15 ± 0.05% | WBC ([3]; day 0): 8.90 ± 0.55 10^3/μl | Lymphocyte ([3]; day 0): 71.5 | Neutrophils ([3]; day 0): 26 | Clotting time ([3]; day 15): 107.45 ± 0.77 s | Eosinophil ([3]; day 15): 1.3% | Monocyte ([3]; day 15): 1.4% | PCV ([3]; day 15): 35.85 ± 1.11% | Platelet count ([3]; day 15): 905 ± 21.2 10³/µL | RBC ([3]; day 15): 7.20 ± 0.81 10^6/μl | Reticulocyte ([3]; day 15): 1.10 ± 0.11% | WBC ([3]; day 15): 9.79 ± 0.57 10^3/μl | Lymphocyte ([3]; day 15): 72.7 | Neutrophils ([3]; day 15): 24.6 | Clotting time ([3]; day 30): 110.0 ± 1.0 s | Eosinophil ([3]; day 30): 1.15% | Monocyte ([3]; day 30): 1.6% | Platelet count ([3]; day 30): 1060 ± 23.3 10³/µL | RBC ([3]; day 30): 7.20 ± 0.20 10^6/μl | Reticulocyte ([3]; day 30): 1.08 ± 0.10% | WBC ([3]; day 30): 9.03 ± 0.3 10^3/μl | Lymphocyte ([3]; day 30): 71.25 | Neutrophils ([3]; day 30): 26 | Clotting time ([3]; day 45): 114.0 ± 1.00 s | Eosinophil ([3]; day 45): 1.15% | Hb ([3]; day 45): 12.00 ± 1.20 g/dL | Monocyte ([3]; day 45): 1.4% | PCV ([3]; day 45): 42.10 ± 1.30% | RBC ([3]; day 45): 7.05 ± 0.21 10^6/μl | Reticulocyte ([3]; day 45): 1.25 ± 0.06% | WBC ([3]; day 45): 9.00 ± 0.50 10^3/μl | Lymphocyte ([3]; day 45): 71.45 | Neutrophils ([3]; day 45): 26 | Clotting time ([3]; day 60): 112.0 ± 1.05 s | Hb ([3]; day 60): 12.20 ± 1.12 g/dL | PCV ([3]; day 60): 43.10 ± 1.30% | RBC ([3]; day 60): 7.06 ± 0.31 10^6/μl | Reticulocyte ([3]; day 60): 1.35 ± 0.06% | WBC ([3]; day 60): 8.00 ± 0.60 10^3/μl | Lymphocyte ([3]; day 60): 71.45 | Neutrophils ([3]; day 60): 26 | Clotting time ([3]; day 75): 110.81 ± 5.86 s | Eosinophil ([3]; day 75): 1.22% | Hb ([3]; day 75): 12.82 ± 0.25 g/dL | Platelet count ([3]; day 75): 1070 ± 22.9 10³/µL | RBC ([3]; day 75): 7.36 ± 0.21 10^6/μl | Reticulocyte ([3]; day 75): 1.70 ± 0.05% | WBC ([3]; day 75): 8.71 ± 0.23 10^3/μl | Lymphocyte ([3]; day 75): 71.12 | Neutrophils ([3]; day 75): 26.28 | Clotting time ([3]; day 90): 111.00 ± 5.57 s | Eosinophil ([3]; day 90): 1.35% | Hb ([3]; day 90): 12.78 ± 0.28 g/dL | Platelet count ([3]; day 90): 1070 ± 22.9 10³/µL | RBC ([3]; day 90): 7.37 ± 0.20 10^6/μl | Reticulocyte ([3]; day 90): 1.73 ± 0.02% | WBC ([3]; day 90): 8.76 ± 0.19 10^3/μl | Lymphocyte ([3]; day 90): 70.82 | Neutrophils ([3]; day 90): 26.37 | Blood glucose level [4]: able to maintain Blood glucose level similar to normal diet group | histopathology of heart ([5]; HFD): cardiac muscle were found stressed | aorta plaque reduction ([5]; HFD continued): mild | aorta plaque reduction ([5]; HFD discontinued): moderate reduction in the plaque | damage to the endothelial lining ([5]; aorta histopathology): mild damage to the endothelial lining
